What was measured:
glutathione in the brain = experiment: Glutathione (GSH) levels in whole-brain homogenates by LC/MS after intranasal or oral NAC; format: in vivo, male Sprague-Dawley rats; conditions: for glutathione in the brain compared to vehicle control (IN PBS): 0.5 hours and 2 hours following administration
Protocol: (§1) In this example, a study was conducted to evaluate the pharmacokinetics of N-acetyl cysteine administered in an intranasal formulation. The study also evaluated the effectiveness on intranasally administered NAC to increase glutathione concentration in the brain.
(§2) C13-labelled N-acetyl L-cysteine (purchased from Cambridge Isotope Laboratories) was used to prepare formulations in phosphate-buffered saline (PBS) for the study. The subjects for the study were male Sprague-Dawley rats weighing approximately 250 grams, and 39 animals were separated into four groups, as shown in Table 1. The animals in the study groups were administered either an intranasal (IN) dose or an oral (PO) dose of N-acetyl cysteine via gavage, as shown in Table 1. Group 1 and group 2 were administered one 20 μl, intranasal injection. Group 3 was administered a single oral dose of 500 μL. Group 4 was administered two separate 10 μL intranasal injections (one per nostril).
The animals were fasted the night prior to the study and were anesthetized using a cocktail of ketamine/xylazine before administration of the study formulation. The rats were left on their sides for 15 minutes after administration of the study formulation. The animals were observed post administration, and at least once a day, more if deemed necessary, during the pre-treatment and treatment periods for mortality and morbidity. In particular, signs of ill health were based on body weight loss, change in appetite, and behavioral changes such as altered gait, lethargy and gross manifestations of stress.
(§3) Three animals from each Group were sacrificed at the established time points (0.5 hour, 1.0 hour and 2.0 hour), and whole brains from the sacrificed animals were collected for analysis. 3 animals from Group 3 were also sacrificed pre-dose and analyzed. The brain samples were stored at −80° C. freezer until sample analysis. Homogenates of the brain samples were prepared and analyzed, and glutathione (GSH) levels in the brain samples were measured by LC/MS.

[1] = set-up: species or system male Sprague-Dawley rats; conditions: rat, in vivo, 20 mg/kg
Protocol: as §1
as §2, with “nostril). […]” for “nostril).”
as §3, with “The brain samples were stored at −80° C. freezer until sample analysis.” left out

[2] = system: blast induced mild traumatic brain injury; conditions: orally administered, cited from earlier work
[3] = orally administered; cited from earlier work
traumatic brain injury [4] = conditions: more than 20 preclinical studies; cited from earlier work
traumatic brain injury [5] = conditions: cited from earlier work

Compound: CC(=O)N[C@@H](CS)C(=O)O [NAC, N-acetylcysteine]
- raising glutathione levels in the brain, intranasal compared with oral NAC (glutathione in the brain; intranasal 20 mg/kg vs oral (PO) 20 mg/kg, rat whole brain, FIG. 1): as effective as oral NAC
- increased GSH concentration in the brain, IN NAC vs IN PBS group (glutathione in the brain; intranasal 20 mg/kg, 2 hour point, p=0.033, Student's T-test, planned comparison): statistically significant
- glutathione in the brain compared to vehicle control (IN PBS) (glutathione in the brain; intranasal NAC 20 mg/kg): Clear trends for increased glutathione
- glutathione in the brain compared to vehicle control (IN PBS) (glutathione in the brain; oral NAC 20 mg/kg): Clear trends for increased glutathione
- concentration of isotope labeled NAC in brain tissue following administration [1]: did not detect an increase
- severity and resolution of sequelae of blast induced mild traumatic brain injury ([2]; 81 active duty service members): beneficial effects
- reducing the symptoms of mild-moderate traumatic brain injury in human patients [2]: effective
- adverse effects [3]: may cause nausea, vomiting and diarrhea

Compound: erythropoietin
- outcome following traumatic brain injury (traumatic brain injury [4]): improves outcome
- increase of the incidence of deep venous thrombosis of the lower limbs (traumatic brain injury [5]; in vivo): did not
- number of patients with severe neurological dysfunction (GOS-E level 1-4) (traumatic brain injury [5]; large multi-center randomized controlled trial): did not reduce
